This is an account of results in patent publication US7834025B2, “Substituted indolyl-alkyl-amino-derivatives as inhibitors of histone deacetylase” (Janssen Pharmaceutica N.V., priority 2006, dated 2010).

≈ marks a conversion by molar mass, not a printed value. Read-outs that look alike come from different tables or passages of the source.

For data set [1] the following is noted: human, 15 min, 5 μM.
Data set [2] relates to human A2780 ovarian carcinoma cells. In words: Antiproliferative activity on A2780 cells (MTT). It is filed as cell-based. The following applies: 96 h, four days of incubation, read-out: Cellular activity pIC50 C.2. (converted). How it is done: Cellular activity of the compounds of formula (I) was determined on A2780 tumour cells using a […] assay for cell toxicity or survival (Mosmann Tim, Journal of Immunological Methods 65: 55-63, 1983)(see example C.2).
All compounds tested were dissolved in DMSO and further dilutions were made in culture medium. Final DMSO concentrations never exceeded 0.1% (v/v) in cell proliferation assays. Controls contained A2780 cells and DMSO without compound and blanks contained DMSO but no cells. MTT was dissolved at 5 mg/ml in PBS. A glycine buffer comprised of 0.1 M glycine and 0.1 M NaCl buffered to pH 10.5 with NaOH (1 N) was prepared (all reagents were from Merck).
The human A2780 ovarian carcinoma cells (a kind gift from Dr. T. C. Hamilton [Fox Chase Cancer Centre, Pa., USA]) were cultured in RPMI 1640 medium supplemented with 2 mM L-glutamine, 50 μg/ml gentamicin and 10% fetal calf serum. Cells were routinely kept as monolayer cultures at 37° C. in a humidified 5% CO2 atmosphere. Cells were passaged once a week using a trypsin/EDTA solution at a split ratio of 1:40. All media and supplements were obtained from Life Technologies. Cells were free of mycoplasma contamination as determined using the Gen-Probe Mycoplasma Tissue Culture kit (supplier: BioMérieux).
Cells were seeded in NUNC™ 96-well culture plates (Supplier: Life Technologies) and allowed to adhere to the plastic overnight. Densities used for plating were 1500 cells per well in a total volume of 200 μl medium. After cell adhesion to the plates, medium was changed and drugs and/or solvents were added to a final volume of 200 μl. Following four days of incubation, medium was replaced by 200 μl fresh medium and cell density and viability was assessed using an MTT-based assay. […] For each sample, the mean value for cell growth (in absorbance units) was expressed as a percentage of the mean value for cell growth of the control. […] Herein the effects of test compounds are expressed as pIC50 (the negative log value of the IC50-value)(see Table F-2).

Data set [3] addresses histone deacetylase (HeLa nuclear extracts). The data set can be described thus: In vitro assay for inhibition of histone deacetylase (Fluor de Lys, HeLa nuclear extracts). Type of data set: biochemical. The settings on record: HeLa nuclear extracts 60 μg/ml, 75 μM Fluor de Lys substrate. The source says: The in vitro assay for inhibition of histone deacetylase (see example C.1) measures the inhibition of HDAC enzymatic activity obtained with the compounds of formula (I).
The HDAC Fluorescent Activity Assay/Drug Discovery Kit of Biomol (cat. No: AK-500-0001) was used. The HDAC Fluorescent Activity Assay is based on the Fluor de Lys (Fluorogenic Histone deAcetylase Lysyl) substrate and developer combination. The Fluor de Lys substrate, comprises an acetylated lysine side chain. Deacetylation of the substrate sensitizes the substrate so that, in the second step, treatment with the Fluor de Lys developer produces a fluorophore.
HeLa nuclear extracts (supplier: Biomol) were incubated at 60 μg/ml with 75 μM of substrate. The Fluor de Lys substrate was added in a buffer containing 25 mM Tris, 137 mM NaCl, 2.7 mM KCl and 1 mM MgCl2.6H2O at pH 7.4. After 30 min, 1 volume of the developer was added. The fluorophore was excited with 355 nm light and the emitted light (450 nm) was be detected on a fluorometric plate reader. For each experiment, controls (containing HeLa nuclear extract and buffer), a blank incubation (containing buffer but no HeLa nuclear extract) and samples (containing compound dissolved in DMSO and further diluted in buffer and HeLa nuclear extract) were run in parallel. In first instance, compounds were tested at a concentration of 10^−5M. […] All sample were tested 4 times. In each test the blank value was subtracted from both the control and the sample values. The control sample represented 100% of substrate deacylation. For each sample the fluorescence was expressed as a percentage of the mean value of the controls. […] Herein the effects of test compounds are expressed as pIC50 (the negative log value of the IC50-value) (see Table F-2).

Data set [4] can be described thus: Kinetic solubility in aqueous media (C.3.a). It is filed as physicochemical. The following applies: kinetic from dmso stock, aqueous buffer pH 7.4. Here is the method: (§1) The solubility of a compound measures the ability of a compound to stay in solution. In the first method, the ability of a compound to stay in aqueous solution upon dilution (see example C.3.a) is measured. DMSO-stock solutions are diluted with a single aqueous buffer solvent in different consecutive steps. Mixtures are then scanned in the BD Gentest Solubility Scanner for the occurrence of precipitation. In the second method the solubility of a compound at different pH's can be measured with the use of a chemiluminescent nitrogen detector (see example C.3.b).
DMSO-stock solutions from 5000-9.8 μM (½ dilutions) are made in DMSO in a 96 well stock solution plate (200 μl per well). After each dilution the samples are mixed. Aliquots of these DMSO solutions (2 μl) are then transferred into 2 other 96 well buffer plates, containing 200 μl per well aqueous buffer. Each of the buffer plates contains either aqueous buffer pH 7.4 or aqueous buffer pH 4.0. After the last dilution the buffer plates are mixed and the samples are stabilized at room temperature for ½ hour. Dilution is done in duplicate for each compound to exclude occasional errors. Mixtures are then scanned in the BD Gentest Solubility Scanner for the occurrence of precipitation. Based on the absence/presence of precipitate in the mixtures the kinetic solubility is calculated by interpolation. Ranking is performed into the 3 classes.

The subject of data set [5] is p21 promoter reporter A2780 clone tumour in nude mice. In words: p21 induction capacity, in vivo method (tumour fluorescence). The following applies: s.c. A2780 reporter clone, 20-40 mpk orally or intravenously daily during 6 days. Here is the method:
The last method is an in vivo method wherein mice are used for screening the pharmaceutical activity of a compound. The above described stably transformed tumour cells can be administered to mice in an amount sufficient to effect production of a tumour. After the tumour cells had sufficient time to form a tumour, a potentially active compound can be administered to the animals and the effect of said compound on the tumour cells is evaluated by measuring the expression of the reporter gene. Incubation with pharmaceutical active compounds will result in an increase of reporter gene expression compared to the control levels (see example C.6.b.)
A selected clone was injected subcutaneous (10^7 cells/200 μl) into the flank of nude mice and a calliper measurable tumour was obtained after 12 days. From day 12 on, animals were dosed, orally or intraveinally, daily during 6 days with solvent and 20-40 mpk compound (4-10 animals each). Tumours were evaluated for fluorescence by the in-house developed Automated Whole Body Imaging System (Fluorescent stereomicroscope type Olympus® SZX12 equipped with a GFP filter and coupled to a CCD camera type JAI® CV-M90 controlled by a software package based on the IMAQ Vision Software from National Instruments®).

Data set [6] is described as follows: Solubility with chemiluminescent nitrogen detector (C.3.b). It is filed as physicochemical. The following applies: pH 2.3, aqueous buffer. Here is the method: as §1
The solubility of a compound, at different pH's, can also be measured with the use of a chemiluminescent nitrogen detector (see Table F-2).

Data set [7] is described as follows: Metabolic stability in liver microsomes. The settings on record: reference compounds; 15 min incubation with microsomes, 5 μM. In general terms: Liver microsomes are vesicles of endoplasmic reticulum, rich in cytochrome P450 enzymes.

With `COc1cc(N)c(Cl)cc1C(=O)NC1CCN(CCCOc2ccc(F)cc2)CC1OC` (stereo not drawn) [Cisapride], the “% metabolism” value in data set [1] is given as 45%.
A word on the melting point: it is the temperature of the solid-liquid transition. As usually defined, the solubility is the concentration that dissolves in the medium under given conditions. Compound `CC(NCC1CCN(c2ncc(C(=O)NO)cn2)CC1)c1cn(C)c2ccccc12` (stereo not drawn) [Compound 1] had a melting point of 296 °C. Moreover, the IC50 in data set [2] is 31.6 nM. The “Enzymatic activity pIC50 C.1.” value in data set [3] turned out to be 9.0. The compound further gave a solubility at 0.5 h in data set [4] of 7.8 µM (≈ 3.19 µg/mL).
With `Cn1cc(C2CCN(CC3CCN(c4ncc(C(=O)NO)cn4)CC3)C2)c2ccccc21` (stereo not drawn) [Compound 2], the melting point turned out to be 231 °C. Besides, the IC50 in data set [2] was 50.1 nM. Besides, the “Tumour fluorescence (reporter gene expression) versus control” value in data set [5] is on record as “increased fluorescence as compared to control”. Also, the “Enzymatic activity pIC50 C.1.” value in data set [3] is recorded as 8.9. Moreover, the solubility at 0.5 h in data set [4] was determined as 9.4 µM (≈ 4.08 µg/mL). In data set [6], this compound showed a solubility of 1350 µg/mL (≈ 3.11 mM).
Turning to `Cn1cc(C2CCCN(CC3CCN(c4ncc(C(=O)NO)cn4)CC3)C2)c2ccccc21` (stereo not drawn) [Compound 3], the melting point is 224 °C. Moreover, the IC50 in data set [2] is 31.6 nM. For the same compound, in data set [3], the “Enzymatic activity pIC50 C.1.” value was determined as 8.3. Moreover, the concentration in solution in data set [4] (solubility at 0.5 h) came to 15.6 µM (≈ 7 µg/mL).
The compound `Cn1cc(C2CCN(CC3CCN(c4ccc(C(=O)NO)cn4)CC3)C2)c2ccccc21` (stereo not drawn) [Compound 4] showed a melting point of 70 °C.
On the same count and under the same terms, as for `Cn1cc(C2CCN(CC3CCN(c4ccc(C(=O)Nc5ccccc5N)cn4)CC3)C2)c2ccccc21` (stereo not drawn) [Compound 5], the figure is 90 °C.
As for `CCCO` [propanol], in data set [7], the “% metabolism” value stood at 25%.
